According to patent publication US8658675B2, “Pyridin-4-yl derivatives” (Actelion Pharmaceuticals Ltd., priority 2009, dated 2014):

Legend:
rat trachea rings = test: Measurement of isometric force development: rat trachea ring constriction; design: species or system Female Wistar rats; details: for potential to constrict rat trachea rings (comparison in words): compared to closest prior art analogues of WO 2008/029371 or to Example 2; for % trachea constriction at 1 μM: compound at 1 μM, in % of the constriction induced by 50 mM KCl
Description: Animals were obtained from RCC Ltd (Füllinsdorf, Switzerland). Female Wistar rats were euthanized by exposure to CO2. The tracheae were excised and rings from the lower segments were prepared. Rings of trachea were suspended in tissue baths (10 mL) containing Krebs-Henseleit buffer of the following composition (mM): NaCl 115; KCl 4.7; MgSO4 1.2; KH2PO4 1.5; CaCl2 2.5; NaHCO3 25; glucose 10. Bathing solution was maintained at 37° C. and aerated with 95% O2/5% CO2 (pH 7.4). A resting force of 2 g (20 mN) was applied to the ring preparation, and changes in force generation were measured using an isometric force recorder (EMKA Technologies Inc, Paris, France). Viability of rings was assessed by exposure to a depolarizing concentration of KCl (50 mM). Contraction of trachea was expressed as a percentage of the response to KCl.
All compounds were prepared as stock solutions of 0.3 mM in pure DMSO. Compounds were added to the bath (10 mL) in a volume of 33 μL to give a final bath concentration of DMSO of 0.33%.
Contraction of trachea was measured for 15 out of 30 exemplified compounds.

circulating lymphocytes = test: Assessment of in vivo efficacy: circulating lymphocytes after oral administration; design: species or system normotensive male Wistar rats; details: Rattus norvegicus, Lymphocyte; 6 h after oral administration of 10 mg/kg, male Wistar rats, compared to vehicle group; read-out: Lymphocyte counts
Description: The efficacy of the compounds of Formula (I) is assessed by measuring the circulating lymphocytes after oral administration of 3 to 30 mg/kg of a compound of Formula (I) to normotensive male Wistar rats. The animals are housed in climate-controlled conditions with a 12 h-light/dark cycle, and have free access to normal rat chow and drinking water. Blood is collected before and 3, 6 and 24 h after drug administration. Full blood is subjected to hematology using Advia Hematology system (Bayer Diagnostics, Zurich, Switzerland).
All data are presented as mean±SEM. Statistical analyses are performed by analysis of variance (ANOVA) using Statistica (StatSoft) and the Student-Newman-Keuls procedure for multiple comparisons. The null hypothesis is rejected when p<0.05.
Lymphocyte counts 6 h after oral administration have been measured for 23 out of 30 exemplified compounds and are in the range of −42% to −80% with an average of −63%.

human S1P1 receptor = human S1P1 receptor (Homo sapiens, UniProt P21453); test: GTPγS assay to determine EC50 values; type: biochemical; details: membranes of CHO cells expressing recombinant human S1P1 receptor; 35S-GTPγS binding
Description: GTPγS binding assays are performed in 96 well microtiter plates (Nunc, 442587) in a final volume of 200 μl, using membrane preparations of CHO cells expressing recombinant human S1P1 receptor. Assay conditions are 20 mM Hepes (Fluka, 54461), 100 mM NaCl (Fluka, 71378), 5 mM MgCl2 (Fluka, 63064), 0.1% BSA (Calbiochem, 126609), 1 μM GDP (Sigma, G-7127), 2.5% DMSO (Fluka, 41644), […] ^35S-GTPγS (Amersham Biosciences, SJ1320). The pH is 7.4. Test compounds are dissolved and diluted in 100% DMSO and pre-incubated at room temperature for 30 min in 150 μl of the above assay buffer, in the absence of ^35S-GTPγS. After addition of 50 μl of ^35S-GTPγS, the assay is incubated for 1 h at rt. The assay is terminated by transfer of the reaction mixture to a Multiscreen plate (Millipore, MAHFC1H60) using a cell harvester from Packard Biosciences, and the plates are washed with ice-cold 10 mM Na2HPO4/NaH2PO4 (70%/30%), dried, sealed at the bottom and, after addition of 25 μl MicroScint20 (Packard Biosciences, order#6013621), sealed on the top. Membrane-bound ^35S-GTPγS is measured with a TopCount from Packard Biosciences.
EC50 is the concentration of agonist inducing 50% of the maximal specific ^35S-GTPγS binding. Specific binding is determined by subtracting non-specific binding from maximal binding. Maximal binding is the amount of cpm bound to the Multiscreen plate in the presence of 10 μM of S1P. Non-specific binding is the amount of binding in the absence of an agonist in the assay.
Agonistic activities (EC50 values) of all exemplified compounds have been measured.

human S1P1 receptor, sequence (P21453 whole entry): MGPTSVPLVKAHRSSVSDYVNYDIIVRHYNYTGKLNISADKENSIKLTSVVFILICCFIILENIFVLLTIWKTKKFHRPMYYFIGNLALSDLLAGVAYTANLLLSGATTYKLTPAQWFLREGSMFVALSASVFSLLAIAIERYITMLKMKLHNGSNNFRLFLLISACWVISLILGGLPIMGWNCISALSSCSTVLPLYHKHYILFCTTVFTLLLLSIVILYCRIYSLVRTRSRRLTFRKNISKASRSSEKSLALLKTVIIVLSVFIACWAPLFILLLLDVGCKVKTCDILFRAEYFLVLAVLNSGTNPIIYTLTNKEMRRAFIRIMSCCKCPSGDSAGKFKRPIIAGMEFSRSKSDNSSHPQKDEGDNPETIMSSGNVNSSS

Structure (SMILES)	% trachea constriction at 1 μM (rat trachea rings) [%]	EC50 (human S1P1 receptor) [nM]	potential to constrict rat trachea rings (comparison in words) (rat trachea rings)	change in vivo at 10 mg/kg (circulating lymphocytes) [%]
CCc1cc(-c2noc(-c3cc(OC)nc(C4CCCC4)c3)n2)cc(C)c1OC[C@H](O)CO [Example 3, (R)-3-{4-[5-(2-Cyclopentyl-6-methoxy-pyridin-4-yl)-[1,2,4]oxadiazol-3-yl]-2-ethyl-6-methyl-phenoxy}-propane-1,2-diol]	<5	1	same low potential to constrict rat trachea rings	-63
CCc1cc(-c2noc(-c3cc(OC)nc(C4CCCCC4)c3)n2)cc(C)c1OC[C@@H](O)CNC(=O)CO [Example 8, N-((2S)-3-{4-[5-(2-Cyclohexyl-6-methoxy-pyridin-4-yl)-[1,2,4]oxadiazol-3-yl]-2-ethyl-6-methyl-phenoxy}-2-hydroxy-propyl)-2-hydroxy-acetamide]	<5	10.8		-58
CCc1cc(-c2nnc(-c3cc(OC)nc(C4CCCC4)c3)o2)cc(C)c1OC[C@@H](O)CNC(=O)CO [Example 27, N-((2S)-3-{4-[5-(2-Cyclopentyl-6-methoxy-pyridin-4-yl)-[1,3,4]oxadiazol-2-yl]-2-ethyl-6-methyl-phenoxy}-2-hydroxy-propyl)-2-hydroxy-acetamide]		1.7		-54
COc1cc(-c2nc(-c3cc(C)c(OC[C@@H](O)CNC(=O)CO)c(Cl)c3)no2)cc(C2CCCC2)n1 [Example 14, N-((2S)-3-{2-Chloro-4-[5-(2-cyclopentyl-6-methoxy-pyridin-4-yl)-[1,2,4]oxadiazol-3-yl]-6-methyl-phenoxy}-2-hydroxy-propyl)-2-hydroxy-acetamide]		1.1		-70
CCS(=O)(=O)Nc1c(C)cc(-c2noc(-c3cc(OC)nc(C4CCCC4)c3)n2)cc1Cl [Example 5, Ethanesulfonic acid {2-chloro-4-[5-(2-cyclopentyl-6-methoxy-pyridin-4-yl)-[1,2,4]oxadiazol-3-yl]-6-methyl-phenyl}-amide]		1.8		-66
CCc1cc(-c2noc(-c3cc(CCC(C)C)nc(OC)c3)n2)cc(C)c1OC[C@@H](O)CO [Example 15, (S)-3-(2-Ethyl-4-{5-[2-methoxy-6-(3-methyl-butyl)-pyridin-4-yl]-[1,2,4]oxadiazol-3-yl}-6-methyl-phenoxy)-propane-1,2-diol]		7.5		
CCc1cc(-c2noc(-c3cc(CCC(C)C)nc(OC)c3)n2)cc(C)c1NS(C)(=O)=O [Example 30, N-(2-Ethyl-4-(5-(2-isopentyl-6-methoxypyridin-4-yl)-1,2,4-oxadiazol-3-yl)-6-methylphenyl)methanesulfonamide]		5.6		
CCc1cc(-c2nc(-c3cc(OC)nc(C4CCCC4)c3)no2)cc(C)c1OC[C@@H](O)CNC(=O)CO [Example 23, N-((2S)-3-{4-[3-(2-Cyclopentyl-6-methoxy-pyridin-4-yl)-[1,2,4]oxadiazol-5-yl]-2-ethyl-6-methyl-phenoxy}-2-hydroxy-propyl)-2-hydroxy-acetamide]		0.4		-56

Continued, in another order:

% trachea constriction at 1 μM (rat trachea rings) [%]	EC50 (human S1P1 receptor) [nM]	Structure (SMILES)	potential to constrict rat trachea rings (comparison in words) (rat trachea rings)	change in vivo at 10 mg/kg (circulating lymphocytes) [%]
	4	CCc1cc(-c2nnc(-c3cc(OC)nc(C4CCCC4)c3)o2)cc(C)c1OC[C@H](O)CO [Example 26, (R)-3-{4-[5-(2-Cyclopentyl-6-methoxy-pyridin-4-yl)-[1,3,4]oxadiazol-2-yl]-2-ethyl-6-methyl-phenoxy}-propane-1,2-diol]		
53	1.9	CCc1cc(-c2nnc(-c3cc(OC)nc(C4CCCC4)c3)o2)cc(C)c1OC[C@@H](O)CO [Example 25, (S)-3-{4-[5-(2-Cyclopentyl-6-methoxy-pyridin-4-yl)-[1,3,4]oxadiazol-2-yl]-2-ethyl-6-methyl-phenoxy}-propane-1,2-diol]		-51
50	0.6	CCc1cc(-c2noc(-c3cc(OC)nc(C4CCCC4)c3)n2)cc(C)c1OC[C@@H](O)CNC(=O)CO [Example 7, N-((2S)-3-{4-[5-(2-Cyclopentyl-6-methoxy-pyridin-4-yl)-[1,2,4]oxadiazol-3-yl]-2-ethyl-6-methyl-phenoxy}-2-hydroxy-propyl)-2-hydroxy-acetamide]	markedly reduced potential to constrict rat trachea rings	-65
	1.2	CCC(CC)c1cc(-c2nc(-c3cc(C)c(NS(C)(=O)=O)c(Cl)c3)no2)cc(OC)n1 [Example 11, N-(2-Chloro-4-{5-[2-(1-ethyl-propyl)-6-methoxy-pyridin-4-yl]-[1,2,4]oxadiazol-3-yl}-6-methyl-phenyl)-methanesulfonamide]		-74
	4.2	CCc1cc(-c2noc(-c3cc(OC)nc(C4CCCCC4)c3)n2)cc(C)c1NS(C)(=O)=O [Example 20, N-{4-[5-(2-Cyclohexyl-6-methoxy-pyridin-4-yl)-[1,2,4]oxadiazol-3-yl]-2-ethyl-6-methyl-phenyl}-methanesulfonamide]		-67
	2.3	CCc1cc(-c2nnc(-c3cc(OC)nc(C4CCCC4)c3)o2)cc(C)c1OC[C@H](O)CNC(=O)CO [Example 28, N-((2R)-3-{4-[5-(2-Cyclopentyl-6-methoxy-pyridin-4-yl)-[1,3,4]oxadiazol-2-yl]-2-ethyl-6-methyl-phenoxy}-2-hydroxy-propyl)-2-hydroxy-acetamide]		
	17.8	CCc1cc(-c2noc(-c3cc(OC)nc(C(CC)CC)c3)n2)cc(C)c1OC[C@@H](O)CN(C)C(=O)CO [Example 9, N-[(2S)-3-(2-Ethyl-4-{5-[2-(1-ethyl-propyl)-6-methoxy-pyridin-4-yl]-[1,2,4]oxadiazol-3-yl}-6-methyl-phenoxy)-2-hydroxy-propyl]-2-hydroxy-N-methyl-acetamide]		
	1	CCc1cc(-c2nc(-c3cc(OC)nc(C4CCCC4)c3)no2)cc(C)c1OC[C@H](O)CO [Example 22, (R)-3-{4-[3-(2-Cyclopentyl-6-methoxy-pyridin-4-yl)-[1,2,4]oxadiazol-5-yl]-2-ethyl-6-methyl-phenoxy}-propane-1,2-diol]		
	1.6	CCc1cc(-c2nc(-c3cc(OC)nc(C4CCCC4)c3)no2)cc(C)c1OC[C@H](O)CNC(=O)CO [Example 24, N-((2R)-3-{4-[3-(2-Cyclopentyl-6-methoxy-pyridin-4-yl)-[1,2,4]oxadiazol-5-yl]-2-ethyl-6-methyl-phenoxy}-2-hydroxy-propyl)-2-hydroxy-acetamide]		
	10.2	COc1cc(-c2nc(-c3cc(C)c(NS(C)(=O)=O)c(Cl)c3)no2)cc(C2CCCCC2)n1 [Example 17, N-{2-Chloro-4-[5-(2-cyclohexyl-6-methoxy-pyridin-4-yl)-[1,2,4]oxadiazol-3-yl]-6-methyl-phenyl}-methanesulfonamide]		-80
	4	COc1cc(-c2nc(-c3cc(C)c(OC[C@@H](O)CO)c(Cl)c3)no2)cc(C2CCCCC2)n1 [Example 29, (S)-3-{2-Chloro-4-[5-(2-cyclohexyl-6-methoxy-pyridin-4-yl)-[1,2,4]oxadiazol-3-yl]-6-methyl-phenoxy}-propane-1,2-diol]		-62
